Assay results taken from PMC10017685 (Nature Communications, 2023).
In brackets after ≈: the same amount, converted by molar mass. Read-outs that look alike come from different tables or passages of the source. Peptide text beside a SMILES is read from it.

What was measured:
[1] = test system: Sheep red blood cells; experiment: Hemolysis assay (HC50); assay type: cell-based
Procedure: The hemolysis assay was conducted according to the procedure described previously. Sheep red blood cells (Defibrillated Sheep Blood, Graso, Poland) were used. […] Then the solution of RBCs was added to each well (100 μL with a 4% concentration of erythrocytes (v/v). The control wells for 0 and 100% hemolysis were also prepared: RBCs suspended in PBS and 1% of Triton-X 100, respectively. After that the plates were incubated for 60 min at 37 °C and then centrifuged at 800 × g for 10 min at 4 °C (Sorvall ST 16R Centrifuge, Thermo Scientific). The supernatant was carefully […] to new microtiter plates and the release of hemoglobin was measured at 590 nm (Multiskan™ GO Microplate Spectrophotometer, Thermo Scientific). Hemolysis for each concentration was calculated as the percentage of control with 100% hemolysis. All experiments were conducted in triplicate. The final values of HC50 were computed using ic50.tk tool.

[2] = test system: E. coli ATCC 25922; assay type: cell-based, Escherichia coli
Procedure: Fresh cultures were used in antimicrobial assay. […] Moreover MBC was evaluated. […] All experiments were conducted in triplicate.

[3] = test system: E. coli ATCC 43827; assay type: cell-based, Escherichia coli
Procedure: Verification of antimicrobial activity of the synthesized analogs was conducted on reference strains of E. coli ATCC 25922 and ATCC 43827 in the first phase of the experimental validation, and S. aureus ATCC 33591, E. coli ATCC 25922, E. coli ATCC 43827, A. baumannii ATCC BAA 1605, P. aeruginosa ATCC 9027 in the second phase.
All the strains were stored at -80 °C in Roti®-Store cryo vials (Carl Roth GmbH, Germany) and before the tests were transferred into fresh Mueller-Hinton Medium (BioMaxima, Poland) and incubated for 24 h at 37 °C. Fresh cultures were used in antimicrobial assay. The MIC values were evaluated by the broth microdilution method according to Clinical and Laboratory Standards Institute Protocol[86]. […] The experiments were conducted on 96-well microtiter plates, with a final volume of 100 μL. Inoculums densities were adjusted spectrophotometrically (Multiskan™ GO Microplate Spectrophotometer, Thermo Scientific) at the wavelength of 600 nm. The MICs were taken as the lowest drug concentration at which a visible growth of microorganisms was inhibited[87]. Moreover MBC was evaluated. After MIC examination the samples from MIC well and two higher concentrations were seeded on the agar plates. Section with no visible growth of bacterial colonies was reported as the MBC for each strain and compound. All experiments were conducted in triplicate. […]

[4] = test system: erythrocytes; details: cited from earlier work
Text: Supplement 41467_2023_36994_MOESM6_ESM.xlsx, sheet "MD calibration" | column: Hemolytic activity (HC50); Comment

[5] = test system: S. aureus ATCC 29212; details: ref https://dbaasp.org/peptide-card?id=8199; cited from earlier work
Text: page 7: Reviewer #2 (Remarks to the Author): The authors present a new method, HydrAMP, for antimicrobial peptide generation. The generative model of HydrAMP is a decoder, which produces a distribution over peptides in order to mimic the synthesis of the antimicrobial peptides in biological experiments. HydrAMP is the first model trained and used to identify active analogs of non-AMP prototypes. During training, they introduce an additional encoder to provide a variational approximation to help optimize the decoder. Their method is based on the conditional VAE model, which provides the foundat ...

[6] = test system: E. coli ATCC 25922; details: ref https://dbaasp.org/peptide-card?id=8199; cited from earlier work
[7] = experimentally confirmed activity, strain not given; ref Supplementary Data 3; cited from earlier work
Text: 21 (1 picture or pasted object on this page, not shown here)

[8] = test system: E. coli ATCC 25922; parameters: method as in DBAASP; details: origin dbaasp_ecoli; ref DBAASP; cited from earlier work
[9] = Supplementary Data 5F, analogue generation without additional preselection
[10] = first experimental round, broth microdilution (CLSI), Mueller-Hinton Broth, 0.5 × 10^5 CFU/mL, 1-[…], 18 h at 37 °C, triplicate

Molecule: CC[C@H](C)[C@H](N)C(=O)N[C@@H](CC(C)C)C(=O)N[C@@H](CCCNC(=N)N)C(=O)N[C@@H](Cc1c[nH]c2ccccc12)C(=O)N1CCC[C@H]1C(=O)N[C@@H](Cc1c[nH]c2ccccc12)C(=O)N[C@@H](Cc1c[nH]c2ccccc12)C(=O)N1CCC[C@H]1C(=O)N[C@@H](Cc1c[nH]c2ccccc12)C(=O)N[C@@H](CCCNC(=N)N)C(=O)N[C@@H](CCCNC(=N)N)C(=O)N[C@@H](CCCCN)C(N)=O [Omiganan] (H-ILRWPWWPWRRK-NH2)
- HC50 [1]: > 512 µg/mL
- HC50 ([1]; red cells of sheep): >512 µg/mL

Molecule: CC[C@H](C)[C@H](NC(=O)CN)C(=O)NCC(=O)N[C@@H](CCCCN)C(=O)N[C@@H](Cc1ccccc1)C(=O)N[C@@H](CC(C)C)C(=O)N[C@@H](CCCCN)C(=O)N[C@@H](CCCCN)C(=O)N[C@@H](C)C(=O)N[C@@H](CCCCN)C(=O)N[C@@H](CCCCN)C(=O)N[C@@H](Cc1ccccc1)C(=O)NCC(=O)N[C@@H](CCCCN)C(=O)N[C@@H](C)C(=O)N[C@@H](Cc1ccccc1)C(=O)N[C@H](C(=O)N[C@@H](CCCCN)C(=O)N[C@H](C(=O)N[C@@H](CC(C)C)C(=O)N[C@@H](CCCCN)C(=O)N[C@@H](CCCCN)C(N)=O)[C@@H](C)CC)C(C)C [Pexiganan] (H-GIGKFLKKAKKFGKAFVKILKK-NH2)
- HC50 [1]: > 512 µg/mL
- HC50 ([1]; red cells of sheep): >512 µg/mL

Molecule: CC[C@H](C)[C@H](NC(=O)[C@H](CCCCN)NC(=O)[C@H](CC(N)=O)NC(=O)[C@@H](NC(=O)[C@@H](NC(=O)[C@H](CCCCN)NC(=O)[C@@H](NC(=O)[C@H](C)NC(=O)[C@@H](NC(=O)[C@H](Cc1c[nH]cn1)NC(=O)CNC(=O)[C@H](C)NC(=O)[C@H](CC(C)C)NC(=O)[C@H](CC(=O)O)NC(=O)[C@H](CCCCN)NC(=O)[C@H](C)NC(=O)[C@H](C)NC(=O)CNC(=O)[C@H](CCCCN)NC(=O)[C@H](CC(C)C)NC(=O)[C@@H](NC(=O)[C@H](CC(=O)O)NC(=O)[C@H](CC(C)C)NC(=O)[C@@H](NC(=O)CN)C(C)C)[C@@H](C)CC)C(C)C)[C@@H](C)O)C(C)C)[C@@H](C)CC)C(N)=O [Syphaxin] (H-GVLDILKGAAKDLAGHVATKVINKI-NH2)
- HC50 [1]: > 512 µg/mL
- HC50 ([1]; red cells of sheep): >512 µg/mL

Molecule: CC[C@H](C)[C@H](NC(=O)CNC(=O)[C@H](CO)NC(=O)[C@H](CC(C)C)NC(=O)[C@@H](NC(=O)[C@H](CCCNC(=N)N)NC(=O)CNC(=O)[C@@H](NC(=O)[C@H](CC(C)C)NC(=O)[C@@H]1CCCN1C(=O)[C@H](CC(C)C)NC(=O)[C@@H](N)Cc1ccccc1)[C@@H](C)CC)C(C)C)C(=O)N[C@@H](C)C(N)=O [Temp-P1-3] (H-FLPLIGRVLSGIA-NH2)
- E. coli ATCC 25922 MIC [2, 9]: 512 µg/mL
- MIC E. coli ATCC 25922 [2, 10]: 512 µg/mL (≈ 378 µM)
- E. coli ATCC 43827 MIC [3, 9]: 512 µg/mL
- MIC E. coli ATCC 43927 [3, 10]: 512 µg/mL (≈ 378 µM)

Molecule: FFHHIFRGIVHVGKTIHRLVTG [Piscidin 1]
- Comment: toxicity [4]: Active broad spetrum, toxic

Molecule: FFSLIPSLVGGLISAFK [Stigmurin]
- MIC S. aureus ATCC 29212 [5]: 8.68 µM
- MIC E. coli ATCC 25922 [6]: > 139 µM

Molecule: FLRFIGSVIHGIGHLVHHIGVAL [Clavaspirin]
- MIC (moderately active AMP of MD validation set) [7]: 64 µg/mL

Molecule: GLLSLSLGKLL
- Class (activity against E. coli ATCC 25922 in dedicated activity dataset) [8]: 1 (positive (active) examples are peptides selected from DBAASP with experimentally verified MIC≤ 101.5≃ 32 against E. coli ATCC 25922)

Molecule: KDRPKKPGLCPLIWWLIIKVG
- Class (activity against E. coli ATCC 25922 in dedicated activity dataset) [8]: 1 (positive (active) examples are peptides selected from DBAASP with experimentally verified MIC≤ 101.5≃ 32 against E. coli ATCC 25922)

Molecule: KWCFRVCARGICYRRCR
- Class (activity against E. coli ATCC 25922 in dedicated activity dataset) [8]: 1 (positive (active) examples are peptides selected from DBAASP with experimentally verified MIC≤ 101.5≃ 32 against E. coli ATCC 25922)

Molecule: LKKLLKLLKPLLKL
- Class (activity against E. coli ATCC 25922 in dedicated activity dataset) [8]: 1 (positive (active) examples are peptides selected from DBAASP with experimentally verified MIC≤ 101.5≃ 32 against E. coli ATCC 25922)
